The source of these data is patent US20100310653A1, “USE OF AN EXTRACT MADE OF LEAVES OF GINKGO BILOBA” (DR. WILLMAR SCHWABE GMBH & CO. KG, priority 2007, published 2010).

The nature of this series: Concentration of lead substances in blood plasma against time after 120 mg Ginkgo extract tablet. The conditions noted are these: humans, one tablet with 120 mg Ginkgo extract, means of 12 test persons, FIG. 1. An excerpt:
The presented values are means of 12 test persons. The administered amount is equal to the daily maximum dose, recommended by the monograph.

As for `CC(C)(C)[C@]1(O)CC2OC(=O)CC23C(=O)OC2OC(=O)[C@H](O)C231` (stereo partly shown) [bilobalide], the “concentration in blood plasma 12 hours after intake” value is “very little concentrations”.
